# Results from BindingDB's records for doi:10.7270/Q2CR5RTC (Burnham Center For Chemical Genomics, 2010).
# Target: T1, Tyrosine-protein phosphatase non-receptor type 22 (Homo sapiens, UniProt Q9Y2R2)
# T1 sequence (Q9Y2R2 whole entry): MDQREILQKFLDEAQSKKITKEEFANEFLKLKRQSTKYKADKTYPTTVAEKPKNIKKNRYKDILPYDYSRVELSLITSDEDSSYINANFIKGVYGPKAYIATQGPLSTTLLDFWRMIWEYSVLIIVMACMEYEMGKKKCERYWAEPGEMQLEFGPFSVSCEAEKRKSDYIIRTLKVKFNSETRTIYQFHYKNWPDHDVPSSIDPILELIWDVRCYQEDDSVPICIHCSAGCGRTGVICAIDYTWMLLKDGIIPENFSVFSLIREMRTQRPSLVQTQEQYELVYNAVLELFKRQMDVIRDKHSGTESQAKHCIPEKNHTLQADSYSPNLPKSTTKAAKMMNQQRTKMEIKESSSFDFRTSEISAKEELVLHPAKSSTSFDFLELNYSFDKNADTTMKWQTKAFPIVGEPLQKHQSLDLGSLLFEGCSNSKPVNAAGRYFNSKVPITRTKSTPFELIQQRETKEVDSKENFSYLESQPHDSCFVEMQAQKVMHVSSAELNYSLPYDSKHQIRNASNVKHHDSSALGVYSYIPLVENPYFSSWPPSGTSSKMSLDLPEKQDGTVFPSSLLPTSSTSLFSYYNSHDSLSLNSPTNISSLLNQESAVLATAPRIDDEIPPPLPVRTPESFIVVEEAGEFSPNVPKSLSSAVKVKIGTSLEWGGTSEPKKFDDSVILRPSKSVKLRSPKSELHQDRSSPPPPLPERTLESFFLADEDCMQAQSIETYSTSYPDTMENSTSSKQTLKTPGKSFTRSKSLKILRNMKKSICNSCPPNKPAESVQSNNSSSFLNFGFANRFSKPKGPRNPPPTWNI
# Experiment: LYP phosphatase inhibitors, dose response, biochemical, fluorescence intensity, uHTS hits, set 2 (AID 435024)
row,Compound,IC50 [µM]
1,"N=C(NN=Cc1ccc2c(c1)OCO2)Sc1cc(O)n(-c2ccc(C(=O)O)cc2)c1O [4-(3-{[[(2E)-2-(1,3-benzodioxol-5-ylmethylene)hydrazino](imino)methyl]thio}-2,5-dioxopyrrolidin-1-yl)benzoic acid]",8.58
2,Cc1ccc(NN=C2C(=O)N(CN3CCOCC3)c3ccccc32)cc1 [(3Z)-3-[(4-methylphenyl)hydrazinylidene]-1-(4-morpholinylmethyl)-2-indolone],> 79.4
3,O=C1C([N+](=O)[O-])=CC(Br)=CC1/C=N/n1cnnc1 (stereo not given) [MLS000714804],> 79.4
4,COC1=CC=CC(/C=N/NC(=O)c2cc3cc([N+](=O)[O-])ccc3s2)C1=O (stereo not given) [SMR000237814],13.1
5,CCOC(=O)NC(=O)C(C=Nc1ccc(C)cc1)C(=O)NC(=O)OCC [ethyl 2-{[(ethoxycarbonyl)amino]carbonyl}-3-(4-toluidino)acryloylcarbamate],> 79.4
